Experimental data taken from paper PMC10886162, “Synthesis of Novel Artemisinin, Ciprofloxacin, and Norfloxacin Hybrids with Potent Antiplasmodial Activity” (Antibiotics, 2024).

Experiments:
[1] = test system: P. falciparum parasite strains (3D7, Dd2, and K1); parameters: method as in PMID 31290221; conditions: range over 3D7, Dd2 and K1 strains; cited from earlier work
3D7 strain = test system: 3D7 strain; parameters: method as in PMID 30023664; conditions: cited from earlier work
[2] = test system: CQ-resistant Dd2 strain of P. falciparum; test: In vitro growth inhibition of P. falciparum Dd2 ([3H]-hypoxanthine incorporation); assay type: cell-based, Plasmodium falciparum; conditions: for IC50: Plasmodium falciparum, CQ-resistant Dd2, mean +/− SD of at least three independent experiments; for Selectivity Index (IC50 AB943/IC50 Dd2): ratio of cytotoxicity IC50 to antiplasmodial IC50 (Dd2)
Description: (§1) The chloroquine-resistant FcB1/Colombia and Dd2/Indochina strains of Plasmodium falciparum were obtained from the Protist Collection of the National Museum of Natural History, Paris, France (n° MNHN-CEU-2016-224-PfFCB1 and MNHN-CEU-2016-222-PfDD2). The parasites were maintained in vitro on human erythrocytes in RPMI 1640 medium supplemented by 8% (v/v) heat-inactivated human serum, at 37 °C, under an atmosphere of 5% CO2. The human red blood cells and serum were provided by the Établissement Français du Sang under the C-CPSL-UNT approval no. 13/EFS/126. The in vitro drug susceptibility assays were measured by [^3H]-hypoxanthine incorporation, as previously described. The drug stock solutions were prepared in DMSO. Briefly, the assays were performed in 96-well plates. The compounds were diluted in the culture medium (100 μL per well). The parasite cultures (100 μL, 2% parasitaemia, and 1% final hematocrit) were then added to each well and incubated for 24 h at 37 °C prior to the addition of 0.5 μCi of [^3H]- hypoxanthine (GE Healthcare, Paris, France, 1 to 5 Ci·mmol/mL) per well. After a further incubation of 24 h, the plates were frozen and thawed. The cell lysates were then collected onto fiberglass filters and counted in a liquid scintillation spectrometer. The growth inhibition for each drug concentration was determined through a comparison of the radioactivity incorporated in the treated culture with that in the control culture maintained on the same plate. The drugs were first evaluated for a range of fixed concentrations of 50, 5, 0.5, 0.05, and 0.005 μg/mL. […] The IC50 value was obtained from the drug concentration–response curve, and the results were expressed in μM or nM as the mean values ± standard deviations determined from several independent experiments. Artesunate (46) was used as an antimalarial drug control.

[3] = test system: human primary fibroblasts AB943; test: Cytotoxicity upon human primary fibroblasts AB943 (resazurin); assay type: cell-based; conditions: Fibroblast, 72 h, mean +/− SD of at least three independent experiments
Description: A cellular cytotoxicity evaluation was performed upon human primary fibroblasts AB943, as previously described. The assays were realized in 96-well plates in DMEM + Glutamax without phenol red medium containing 25 mM HEPES, a pH of 7.3, and 10% of fetal calf serum under a 5% CO2 atmosphere, at 37 °C. After trypsin treatment, the AB943 cells were seeded at 2000 cells per well in 100 μL. After 24 h of incubation, drugs diluted in the culture medium were added (100 μL per well). The drug stock solutions were prepared in dimethyl sulfoxide (DMSO). The final DMSO concentration in the cultures remained below 1%. Control cultures were constituted of cultures treated with DMSO instead of the drug. The cytotoxicity assay was based on the conversion of a redo-sensitive dye (resazurin) to a fluorescent product via viable cells. After 72 h of incubation, the resazurin solution was added in each well at a final concentration of 45 μM. The fluorescence was measured at 530 nm excitation and 590 nm emission wavelengths after 4 h of incubation. The percentage of the inhibition of cell growth was calculated by comparing the fluorescence of cells maintained in the presence of the drug to that in the absence of the drug. The concentration causing 50% growth inhibition (IC50) was obtained from the drug concentration–response curve, and the results were expressed as the mean values ± standard deviations determined from several experiments.

[4] = test system: CQ-resistant P. falciparum FcB1 strain; test: In vitro growth inhibition of P. falciparum FcB1 ([3H]-hypoxanthine incorporation); assay type: cell-based, Plasmodium falciparum; conditions: for IC50: Plasmodium falciparum; for Selectivity Index (IC50 AB943/IC50 FcB1): ratio of cytotoxicity IC50 to antiplasmodial IC50 (FcB1)
Description: as §1

[5] = test system: mammalian and bacterial systems; parameters: method as in PMID 32676153; conditions: cited from earlier work
3D7 P. falciparum strain = test system: 3D7 P. falciparum strain; parameters: method as in PMID 32676153; conditions: cited from earlier work
W2 P. falciparum strain = test system: W2 P. falciparum strain; parameters: method as in PMID 32676153; conditions: cited from earlier work
[6] = test system: CQ-resistant P. falciparum strain FcB1; conditions: cited from earlier work
[7] = FCB1, CQ-resistant FcB1, mean +/− standard deviation of independent experiments (at least four in Tables 1-2, at least three in Tables 3-4)

melting point [°C] | SMILES | EC50 (3D7 strain) [µM] | IC50 [2] [µM] | Selectivity Index (IC50 AB943/IC50 Dd2) [2] | IC50 [3] [µM] | IC50 [4, 7] [µM] | Selectivity Index (IC50 AB943/IC50 FcB1) [4] | also measured
– | CC1CCC2C(C)C(OC(=O)CCC(=O)OCCNc3ccnc4cc(Cl)ccc34)OC3OC4(C)CCC1C32OO4 (stereo not drawn) [hybrid 4] | – | – | – | – | – | – | EC50 [1]: 0.0017 to 0.0045 µM
– | C[C@H]1[C@@H](O)O[C@@H]2O[C@@]3(C)CC[C@H]4[C@H](C)CC[C@@H]1[C@@]24OO3 [DHA, dihydroartemisinin] | 0.0024 ± 0.0004 | – | – | – | – | – | –
– | CCN(CC)CCCC(C)Nc1ccnc2cc(Cl)ccc12 (stereo not drawn) [CQ, chloroquine] | 0.0098 ± 0.0028 | – | – | – | – | – | –
115.4 to 116.2 | CCOC(=O)c1cn(C2CC2)c2cc(N3CCN(C(=O)CCC(=O)O[C@@H]4O[C@@H]5O[C@@]6(C)CCC7[C@H](C)CCC([C@H]4C)[C@]75OO6)CC3)c(F)cc2c1=O (stereo partly drawn) [Compound 21, Ethyl 1-cyclopropyl-6-fluoro-4-oxo-7-(4-(4-oxo-4-(((3R,6R,9R,10S,12R,12aR)-3,6,9-trimethyldecahydro-12H-3,12-epoxy[1,2]dioxepino[4,3-i]isochromen-10-yl)oxy)butanoyl)piperazin-1-yl)-1,4-dihydroquinoline-3-carboxylate] | – | 0.016 | 3302 | 52.8 | 0.0054 | 9826 | –
– | CC1CCC2C(C)C(OC(=O)CCC(=O)OCCNc3ccc4ncnc(Nc5ccc(Cl)c(Cl)c5)c4c3)OC3OC4(C)CCC1C32OO4 (stereo not drawn) [hybrid 3] | 0.0014 ± 0.0004 | – | – | – | – | – | –
– | C[C@H]1[C@H](OC(=O)CCC(=O)O)O[C@@H]2O[C@@]3(C)CC[C@H]4[C@H](C)CC[C@@H]1[C@@]24OO3 [AS (46), artesunate, reference compound] | – | 0.0419 | >3104 | > 130 | 0.0185 | >7042 | EC50 [1]: 0.0052 to 0.0144 µM; IC50 ([4]; FCB1, Table 5, single compound (hybrid or AS alone)): 0.0045 µM
– | CCOC(=O)c1cn(C2CC2)c2cc(N3CCN(c4ccnc5cc(Cl)ccc45)CC3)c(F)cc2c1=O [hybrid 10] | – | – | – | – | – | – | toxicity to mammalian and bacterial systems [5]: nontoxic; IC50 (3D7 P. falciparum strain): 0.0632 ± 0.0012 µM; IC50 (W2 P. falciparum strain): 0.0255 ± 0.00445 µM
160.2 to 161.3 | C[C@@H]1CCC2[C@@H](C)[C@@H](CC(=O)N3CCN(c4cc5c(cc4F)c(=O)c(C(=O)N4CCN(c6ccnc7cc(Cl)ccc67)CC4)cn5C4CC4)CC3)O[C@@H]3O[C@@]4(C)CCC1[C@@]23OO4 (stereo partly drawn) [Compound 25, 3-(4-(7-chloroquinolin-4-yl)piperazine-1-carbonyl)-1-cyclopropyl-6-fluoro-7-(4-(2-((3R,6R,9R,10R,12R,12aR)-3,6,9-trimethyldecahydro-12H-3,12-epoxy[1,2]dioxepino[4,3-i]isochromen-10-yl)acetyl)piperazin-1-yl)quinolin-4(1H)-one] | – | 0.0177 | 220 | 3.9 | 0.0075 | 521 | –
– | C[C@@H]1CC[C@H]2[C@@H](C)C(=O)O[C@@H]3O[C@@]4(C)CC[C@@H]1[C@]32OO4 [ART, artemisinin] | – | – | – | – | – | – | IC50 [6]: 0.055 ± 0.0136 µM
168.7 to 169.6 | CCn1cc(C(=O)N2CCN(c3ccnc4cc(Cl)ccc34)CC2)c(=O)c2cc(F)c(N3CCN(C(=O)CCC(=O)O[C@@H]4O[C@@H]5O[C@@]6(C)CCC7[C@H](C)CCC([C@H]4C)[C@]75OO6)CC3)cc21 (stereo partly drawn) [Compound 29, (3R,6R,9R,10S,12R,12aR)-3,6,9-trimethyldecahydro-12H-3,12-epoxy[1,2]dioxepino[4,3-i]isochromen-10-yl 4-(4-(3-(4-(7-chloroquinolin-4-yl)piperazine-1-carbonyl)-1-ethyl-6-fluoro-4-oxo-1,4-dihydroquinolin-7-yl)piperazin-1-yl)-4-oxobutanoate] | – | 0.0182 | 1658 | 30.3 | 0.005 | 6027 | –
